Experimental findings from patent US8933229B2, “8-azabicyclo[3.2.1]octane-8-carboxamide derivative” (Sumitomo Dainippon Pharma Co., Ltd., priority 2009, dated 2015) are described below.

Where only a bound is given, the exact number is not on record here.

The target in assay [1] is T1, cortisone reductase of mouse adipose cell (11βHSD1) (Mus musculus, UniProt P50172).
T1 construct: The medium of adipocytes which were differentiated and induced as mentioned above were replaced; endogenous in cells; host or cells: primary cells from visceral fat tissue of ICR male mice (Japan SLC), differentiated into adipocytes in culture
T1 sequence (P50172 whole entry): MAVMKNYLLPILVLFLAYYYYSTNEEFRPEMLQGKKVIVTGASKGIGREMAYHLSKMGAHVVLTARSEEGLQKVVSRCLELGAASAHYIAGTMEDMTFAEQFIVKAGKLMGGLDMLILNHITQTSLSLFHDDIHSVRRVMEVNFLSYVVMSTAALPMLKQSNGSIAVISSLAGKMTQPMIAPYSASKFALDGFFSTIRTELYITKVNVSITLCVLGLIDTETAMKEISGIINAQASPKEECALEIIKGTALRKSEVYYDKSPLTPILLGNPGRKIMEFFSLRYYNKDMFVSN
Briefly: Inhibitory activity assay against cortisone reductase of mouse primary adipocytes. Type of assay: cell-based. As to conditions: differentiated ICR mouse visceral fat primary adipocytes, 100 nM [1,2-3H] cortisone, 37° C. The procedure: The adipose tissues adhered to the mesenterium and around the testicle of ten ICR male mice (9 to 11 weeks old, Japn SLC Inc.) (hereinafter, referred to as visceral fat tissue) were soaked in about 100 mL of a phospate buffer (0.20 g/L KCl, 0.20 g/L KH2PO4, 8.00 g/L NaCl, 2.16 g/L Na2HPO4.7H2O, 100 unit/ml penicillin (GIBCO), 100 μg/ml streptomycin (GIBCO), 250 ng/ml amphotericin (GIBCO)) and washed at room temperature.
The excised visceral fat tissues was cut finely in about 5×5 mm with scissors in Dulbecco's modified Eagle medium (about 50 ml, containing 4.5 g/L D-glucose and 584 mg/L L-glutamine, GIBCO) to which collagenase (Type II, Sigma), penicillin (GIBCO), streptomycin (GIBCO) and amphotericin (GIBCO) were added in an amount so that the final concentrations thereof are adjusted to 1 mg/ml, 100 unit/ml, 100 μg/ml and 250 ng/ml, respectively. Then, the mixture was shaken at 37° C. for 30 minutes (about 170 rpm), filtered through nylon mesh (80S [the pore size: 250 μm], SANSHIN INDUSTRIAL CO., LTD.), and the filtrate (cell suspension) was collected. This filtrate was centrifuged at 1800 rpm at room temperature for 5 minutes, and then, the liquid layer was removed stilly by decantation to give a precipate. This precipiate was suspended in Dulbecco's modified Eagle medium (30 ml, containing 4.5 g/L D-glucose and 584 mg/L L-glutamine, GIBCO; hereinafter, occasionally referred to as FBS-containing medium), to which fetal bovine serum (hereinafter referred to as FBS, GIBCO), ascorbic acid (Wako Pure Chemical Industries, Ltd.), penicillin (GIBCO), streptomycin (GIBCO) and amphotericin (GIBCO) are added thereto in an amount so that the final concentrations thereof were adjusted to 10%, 200 μM, 100 units/ml, 100 μg/ml and 250 ng/ml, respectively, and then the suspension was filtered through a nylon mesh (420S [pore size: 25 μm], SANSHIN INDUSTRIAL CO., LTD.). The filtrate was collected, and centrifuged at 1800 rpm at room temperature for 5 minutes. The liquid layer was removed stilly by decantation, and the precipitate was suspended again in the FBS-containing medium (30 ml). This suspension was treated by the same procedure (centrifugation, removal of liquid layer, suspension in FBS-containing medium) two times more, and the suspension (90 ml) was prepared. This suspension was put into cell culture flasks (T150, for adhered cell culture, Iwaki Glass) in a each volume of 30 ml, and incubated at 37° C. in the presence of 5% CO2. At 5 to 6 hours after starting incubation, the medium was removed, and the wall of the flask was washed with the above-mentioned phosphate buffer (15 ml). The washing liquid was removed, and the washing procedure was repeated again, and the phosphate buffer was removed. To the flask was added FBS-containing medium (30 ml), and the mixture was incubated at 37° C. under the presence of 5% CO2. On Day 1 or Day 2 after the culture started, the medium was removed, and the wall of the flask was washed with the phosphate buffer (15 ml) once. To the flask was added a trypsin-ethylenediamine tetraacetate (hereinafter, referred to as trypsin-EDTA) solution (0.05% trypsin, 0.53 mM EDTA 4Na, GIBCO) in such a volume that the cells are duly soaked, and the mixture was allowed to stand at 37° C. for 5 minutes. To this mixture was added the FBS-containing medium in about 10-times volume of that of the trypsin-EDTA solution, and then the cell suspension was obtained.
The cells in the cell suspension were counted with a counting chamber, and the cell suspension was diluted with the FBS-containing medium so that the concentration of the cell was adjusted to 1.4×10^5 cells/ml. Thus obtained cell dilution was put into a 48-well plate (for adherent cell culture, Iwaki Glass) in an amount of 300 μl per well, and the plate was incubated at 37° C. in the presence of 5% CO2 for 1 to 2 days. […]

The target of assay [2] is T2, cortisone reductase of human adipose cell (11βHSD1) (Homo sapiens, UniProt P28845).
T2 construct: host or cells: normal human visceral preadipocytes (HPrAD-vis) differentiated into adipocytes
T2 sequence (P28845 whole entry): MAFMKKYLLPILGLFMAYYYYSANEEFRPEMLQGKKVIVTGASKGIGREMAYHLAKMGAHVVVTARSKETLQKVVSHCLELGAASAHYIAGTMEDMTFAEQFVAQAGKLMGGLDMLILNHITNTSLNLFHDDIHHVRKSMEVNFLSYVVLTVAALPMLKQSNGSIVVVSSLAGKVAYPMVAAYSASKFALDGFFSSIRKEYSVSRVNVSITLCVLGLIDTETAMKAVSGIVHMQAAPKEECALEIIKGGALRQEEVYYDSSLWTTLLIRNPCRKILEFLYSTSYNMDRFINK
Briefly: Inhibitory activity assay against cortisone reductase activity of cultured human adipocytes. The class given is cell-based. The settings on record: differentiated normal human preadipocytes (HPrAD-vis), 100 nM [1,2-3H] cortisone, 37° C. The procedure:
Normal human preadipocytes (HPrAD-vis, manufactured by Cambrex corporation) were inoculated onto a 48-well cell culture plate, and the differentiation induction was carried out according to Protocol attached to the kit. The medium for the cells on the 9-11 days of the differentiation was changed to D-MEM medium (0.2 ml; manufactured by GIBCO) containing 100 nM [1,2-^3H] cortisone (1 μCi/well, manufactured by Muromachi Yakuhin), 0.5% DMSO, a test compound (for test compound treated group, or DMSO only for the no-test compound treated group). The plate was incubated at 37° C. for 3 hours, and then the whole medium was collected. As a background group, the medium without cell was used. The medium was mixed with ethyl acetate (0.1 ml) in an Eppendorf tube. This mixture was voltexed, and then further centrifuged at 5,000 rpm for one minute at room temperature to separate the ethyl acetate layer (the upper layer). The ethyl acetate layer (10 μl) was spotted on an aluminium plate for thin layer chromatography (silica gel 60 angstrom, Merck & Co., Inc., hereinafter referred to as TLC plate). The developing solvent (chloroform/methanol (90:10, v/v)) was put into a sealed vessel, and the TLC plate was developed, and then dried at room temperature. An imaging plate (TR-2040, Fujifilm) was exposed onto the dried TLC plate for 16 hours or more. After the exposure was completed, the imaging plate was analyzed by Bioimage Analyzer (BAS2500, Fujifilm) and the [^3H] radioactivity on the part corresponding to the position of cortisol developed on the TLC plate. The inhibitory activity of a test compound against cortisone reductase was calculated according to the following equation. (inhibitory activity (%))=100×((group without test compound)−(group with test compound))/((group without test compound)−(background group))
The IC50 value was calculated by linear regression of logarithmic value of the concentration of test compound and the inhibitory activity value, using the data at 2 points showing around 50% of the inhibitory activity. […] The IC50 value of the following compounds of the present invention against cortisone reductase of human adipose cell was determined.

By IC50 is commonly meant the concentration that inhibits the measured activity by half. Read a low IC50 as inhibition by little substance. In assay [1], `Cc1cccc(N2CCC(OC3CC4CCC(C3)N4C(=O)NC3C4CC5CC3CC(O)(C5)C4)CC2)c1` (centres unmarked) [Example 423] came in with an IC50 of less than 3 nM. `COc1cccc(OC2CC3CCC(C2)N3C(=O)NC2C3CC4CC2CC(O)(C4)C3)c1Cl` (centres unmarked) [compound 192]: the IC50 in assay [2] was less than 3 nM. `O=C(NC1C2CC3CC1CC(O)(C3)C2)N1C2CCC1CC(Oc1cc(F)c(F)c(F)c1)C2` (centres unmarked) [Example 383] had an IC50 in assay [2] of less than 3 nM.

For the compound `Cc1cc(OC2CC3CCC(C2)N3C(=O)NC2C3CC4CC2CC(O)(C4)C3)ncc1F` (centres unmarked) [Example 404], the IC50 in assay [2] is less than 3 nM. In assay [2], `O=C(NC1C2CC3CC1CC(O)(C3)C2)N1C2CCC1CC(Oc1ncccc1C(F)F)C2` (centres unmarked) [Example 336] yielded an IC50 of 8.4 nM.

In turn, `O=C(NC1C2CC3CC1CC(O)(C3)C2)N1C2CCC1CC(Oc1ncc(C(F)F)cc1Cl)C2` (centres unmarked) [Example 342] yielded an IC50 in assay [1] of less than 3 nM.

In assay [1], `COCc1cccc(OC2CC3CCC(C2)N3C(=O)NC2C3CC4CC2CC(O)(C4)C3)c1F` (centres unmarked) [Example 364] returned an IC50 of 7.7 nM. Compound `O=C1CCc2ccc(OC3CC4CCC(C3)N4C(=O)NC3C4CC5CC3CC(O)(C5)C4)cc21` (centres unmarked) [Example 390] gave an IC50 in assay [2] of 11 nM.

`O=C(NC1C2CC3CC1CC(O)(C3)C2)N1C2CCC1CC(Oc1cc(C(F)(F)F)ccn1)C2` (centres unmarked) [Example 307] registered an IC50 in assay [1] of less than 1 nM. Regarding `Cc1ccnc(C2CC3CCC(C2)N3C(=O)NC2C3CC4CC2CC(O)(C4)C3)c1` (centres unmarked) [compound 241], the IC50 in assay [2] is less than 3 nM. `CN(c1ccccc1)C1CC2CCC(C1)N2C(=O)NC1C2CC3CC1CC(O)(C3)C2` (stereo not drawn) [Example 316, (3-Endo)-N-[(E)-5-hydroxyadamantan-2-yl]-3-[methyl(phenyl)amino]-8-azabicyclo-[3.2.1]octane-8-carboxamide]: half-maximal inhibition in assay [1] (IC50) was put at 18 nM.

Consider `O=C(NC1C2CC3CC1CC(O)(C3)C2)N1C2CCC1CC(Oc1cccc(Cl)n1)C2` (centres unmarked) [Example 311], for which half-maximal inhibition in assay [1] (IC50) was put at 8.8 nM.

In assay [1], `CC(=O)c1cccnc1OC1CC2CCC(C1)N2C(=O)NC1C2CC3CC1CC(O)(C3)C2` (centres unmarked) [Example 353] yielded an IC50 of 7.9 nM. Regarding `Cc1cccnc1OC1CC2CCC(C1)N2C(=O)NC1C2CC3CC1CC(O)(C3)C2` (centres unmarked) [Example 407], in assay [1], the IC50 worked out at 4.1 nM.

With `O=C(NC1C2CC3CC1CC(O)(C3)C2)N1C2CCC1CC(Oc1ccc(F)cn1)C2` (centres unmarked) [Example 413], the IC50 in assay [2] was less than 3 nM.

For the compound `O=C(NC1C2CC3CC1CC(O)(C3)C2)N1C2CCC1CC(Oc1ncccc1C1CC1)C2` (centres unmarked) [Example 326], the IC50 in assay [2] was less than 3 nM. As for `O=C(NC1C2CC3CC1CC(O)(C3)C2)N1C2CCC1CC(OC1CCN(c3ccc(F)cn3)CC1)C2` (centres unmarked) [Example 427], the IC50 in assay [2] was 15 nM. As to `O=C(NC1C2CC3CC1CC(O)(C3)C2)N1C2CCC1CC(Oc1cc(OC(F)F)ccn1)C2` (centres unmarked) [Example 339], the IC50 in assay [2] is less than 3 nM. As for `O=C(NC1C2CC3CC1CC(O)(C3)C2)N1C2CCC1CC(Oc1cc(OCC(F)(F)F)ccn1)C2` (centres unmarked) [Example 373], the IC50 in assay [2] was 17 nM. In assay [2], `O=C(NC1C2CC3CC1CC(O)(C3)C2)N1C2CCC1CC(Oc1ccc3c(c1)OC(F)(F)O3)C2` (centres unmarked) [Example 378] had an IC50 of 14 nM.

In assay [1], `O=C(NC1C2CC3CC1CC(O)(C3)C2)N1C2CCC1CC(N1Cc3ccccc3C1)C2` (centres unmarked) [Example 431] came in with an IC50 of 27 nM.

Turning to `O=C(NC1C2CC3CC1CC(O)(C3)C2)N1C2CCC1CC(Oc1ccc(F)cn1)C2` (centres unmarked) [Example 409], the IC50 in assay [2] is less than 3 nM. In turn, `CCc1cccnc1OC1CC2CCC(C1)N2C(=O)NC1C2CC3CC1CC(O)(C3)C2` (centres unmarked) [Example 324] returned an IC50 in assay [1] of less than 3 nM.

In turn, `CC(C)c1ccnc(OC2CC3CCC(C2)N3C(=O)NC2C3CC4CC2CC(O)(C4)C3)c1` (centres unmarked) [Example 309] registered an IC50 in assay [1] of 4.1 nM. In assay [2], `O=C(N[C@H]1C2CC3CC1C[C@](O)(C3)C2)N1[C@@H]2CC[C@H]1C[C@H](Oc1ccccc1)C2` [compound 2] had an IC50 of less than 1 nM. `O=C(NC1C2CC3CC1CC(O)(C3)C2)N1C2CCC1CC(Oc1ncccc1F)C2` (centres unmarked) [Example 400] had an IC50 in assay [1] of less than 3 nM. For `Cc1cnc(C)c(OC2CC3CCC(C2)N3C(=O)NC2C3CC4CC2CC(O)(C4)C3)n1` (centres unmarked) [Example 306], the IC50 in assay [2] stood at 6.3 nM. In the case of `O=C(N[C@H]1C2CC3CC1C[C@](O)(C3)C2)N1[C@@H]2CC[C@H]1CC(COc1ccccc1)C2` (stereo partly drawn) [Example 314, (1R,5S)-N-[(E)-5-Hydroxyadamantan-2-yl]-3-(phenoxymethyl)-8-azabicyclo[3.2.1]octane-8-carboxyamide], the IC50 in assay [2] came out at 19 nM.

`O=C(NC1C2CC3CC1CC(O)(C3)C2)N1C2CCC1CC(Oc1cccc(COCC(F)(F)F)c1)C2` (centres unmarked) [Example 367] came in with an IC50 in assay [1] of less than 3 nM.
